From the NIST ThermoML archive (doi:10.1021/acs.jced.8b00157)
± gives the expanded uncertainty stated by the source.

Assay: an = ratio of the nth substance listed
Conditions: 100 kPa, Liquid, Buoyancy - hydrostatic balance

[F][Al]([F])[F] [aluminum fluoride] + [F-].[K+]
mass density [kg/m3]
Conditions | a2 = 1.3 | a2 = 1.5
1068.5 K | 1772 ± 10 | –
1068.7 K | – | 1790 ± 10
1069.1 K | – | 1790 ± 10
1069.3 K | 1772 ± 10 | –
1069.4 K | 1771 ± 10 | –
1069.6 K | 1771 ± 10 | 1790 ± 10
1069.9 K | – | 1789 ± 10
1070.1 K | 1771 ± 10 | –
1070.2 K | – | 1789 ± 10
1070.5 K | 1771 ± 10 | –
1070.7 K | – | 1788 ± 10
1071.1 K | – | 1788 ± 10
1071.2 K | 1770 ± 11 | –
1071.3 K | 1770 ± 11 | –
1071.4 K | – | 1788 ± 10
1071.9 K | 1769 ± 11 | 1787 ± 10
1072 K | 1769 ± 11 | –
1072.3 K | – | 1787 ± 10
1072.6 K | 1768 ± 11 | –
1072.7 K | 1768 ± 11 | 1787 ± 10
1073 K | – | 1787 ± 10
1073.4 K | 1768 ± 11 | 1787 ± 10
1073.7 K | – | 1786 ± 10
1073.8 K | 1767 ± 11 | –
1073.9 K | 1767 ± 11 | –
1074.1 K | – | 1786 ± 10
1074.5 K | – | 1786 ± 10
1074.7 K | 1766 ± 11 | –
1074.9 K | – | 1786 ± 10
1075.2 K | – | 1785 ± 10
1075.3 K | 1766 ± 11 | –
1075.4 K | – | 1785 ± 10
1075.5 K | 1766 ± 11 | –
1075.6 K | – | 1784 ± 10
1076 K | 1765 ± 11 | –
1076.2 K | – | 1784 ± 10
1076.4 K | 1765 ± 11 | –
1076.5 K | 1765 ± 11 | –
1076.6 K | – | 1784 ± 10
1076.7 K | 1765 ± 11 | –
1077 K | – | 1784 ± 10
1077.3 K | – | 1783 ± 10
1077.4 K | 1763 ± 11 | –
1077.7 K | – | 1783 ± 10
1078.1 K | – | 1783 ± 10
1078.2 K | 1762 ± 11 | –
1078.3 K | 1762 ± 11 | 1782 ± 10
1078.4 K | 1761 ± 11 | –
1078.7 K | – | 1782 ± 10
1079.1 K | 1761 ± 11 | 1782 ± 10
1079.4 K | – | 1782 ± 10
1079.5 K | 1760 ± 11 | –
1079.7 K | 1760 ± 11 | 1781 ± 10
1080.2 K | – | 1781 ± 10
1080.5 K | – | 1780 ± 10
1080.7 K | 1760 ± 11 | –
1080.8 K | 1759 ± 11 | –
1081 K | – | 1780 ± 10
1081.2 K | 1759 ± 11 | –
1081.3 K | – | 1780 ± 10
1081.4 K | 1759 ± 11 | –
1081.6 K | 1758 ± 11 | –
1081.7 K | 1757 ± 11 | –
1081.8 K | – | 1780 ± 10
1082.1 K | – | 1779 ± 10
1082.4 K | 1758 ± 11 | –
1082.5 K | – | 1779 ± 10
1082.7 K | 1757 ± 11 | –
1082.8 K | 1757 ± 11 | 1779 ± 10
1083.2 K | – | 1779 ± 10
1083.6 K | – | 1778 ± 10
1083.9 K | 1756 ± 11 | 1778 ± 10
1084.1 K | 1756 ± 11 | –
1084.3 K | – | 1778 ± 10
1084.4 K | 1756 ± 11 | –
1084.8 K | – | 1778 ± 10
1084.9 K | 1756 ± 10 | –
1085.1 K | – | 1777 ± 10
1085.4 K | 1755 ± 10 | –
1085.5 K | – | 1777 ± 10
1085.6 K | 1755 ± 10 | –
1085.9 K | – | 1776 ± 10
1086.2 K | 1754 ± 10 | –
1086.4 K | 1754 ± 11 | 1776 ± 10
1086.6 K | – | 1776 ± 10
1086.9 K | 1754 ± 11 | –
1087 K | 1754 ± 11 | –
1087.1 K | – | 1776 ± 10
1087.6 K | – | 1775 ± 10
1087.7 K | 1753 ± 10 | –
1088 K | 1753 ± 10 | 1775 ± 10
1088.2 K | 1753 ± 10 | –
1088.3 K | 1752 ± 10 | –
1088.4 K | – | 1775 ± 10
1088.8 K | 1752 ± 10 | 1775 ± 10
1089.2 K | – | 1774 ± 10
1089.3 K | 1751 ± 10 | –
1089.6 K | – | 1774 ± 10
1089.7 K | 1751 ± 11 | –
1089.9 K | – | 1774 ± 10
1090.4 K | 1751 ± 11 | 1774 ± 10
1090.5 K | 1751 ± 11 | –
1090.7 K | – | 1773 ± 10
1091 K | 1750 ± 11 | –
1091.1 K | – | 1773 ± 10
1091.2 K | 1750 ± 11 | –
1091.6 K | – | 1772 ± 10
1091.7 K | 1750 ± 11 | –
1092 K | – | 1772 ± 10
1092.2 K | 1749 ± 11 | –
1092.3 K | 1749 ± 10 | 1772 ± 10
1092.5 K | 1748 ± 11 | –
1092.6 K | 1748 ± 11 | –
1092.7 K | – | 1772 ± 10
1093.2 K | – | 1771 ± 10
1093.5 K | 1747 ± 11 | 1771 ± 10
1093.8 K | 1748 ± 11 | –
1093.9 K | – | 1771 ± 10
1094.2 K | 1747 ± 11 | –
1094.3 K | – | 1771 ± 10
1094.7 K | – | 1770 ± 10
1094.8 K | 1747 ± 11 | –
1094.9 K | 1747 ± 11 | –
1095 K | 1746 ± 11 | –
1095.1 K | – | 1770 ± 10
1095.3 K | 1746 ± 10 | –
1095.5 K | 1745 ± 10 | 1770 ± 10
1095.8 K | – | 1769 ± 10
1096.1 K | 1745 ± 11 | –
1096.2 K | 1745 ± 11 | –
1096.3 K | – | 1769 ± 10
1096.4 K | 1744 ± 11 | –
1096.6 K | – | 1769 ± 10
1096.7 K | 1744 ± 11 | –
1097 K | – | 1769 ± 10
1097.1 K | 1744 ± 11 | –
1097.2 K | 1744 ± 11 | –
1097.4 K | – | 1768 ± 10
1097.6 K | 1744 ± 11 | –
1097.9 K | – | 1768 ± 10
1098.1 K | 1743 ± 11 | 1767 ± 10
1098.3 K | 1743 ± 11 | –
1098.5 K | – | 1767 ± 10
1098.6 K | 1743 ± 10 | –
1098.8 K | 1742 ± 11 | –
1098.9 K | 1742 ± 11 | –
1099 K | – | 1767 ± 10
1099.4 K | – | 1767 ± 10
1099.5 K | 1742 ± 10 | –
1099.6 K | 1742 ± 10 | –
1099.8 K | – | 1766 ± 10
1100.1 K | 1741 ± 11 | –
1100.2 K | – | 1766 ± 10
1100.4 K | 1741 ± 11 | –
1100.6 K | 1741 ± 11 | 1766 ± 10
1100.9 K | 1740 ± 11 | 1766 ± 10
1101 K | 1741 ± 10 | –
1101.2 K | 1740 ± 11 | 1765 ± 10
1101.7 K | 1740 ± 10 | 1765 ± 10
1101.8 K | 1739 ± 11 | –
1101.9 K | 1739 ± 11 | –
1102.1 K | – | 1765 ± 10
1102.4 K | – | 1765 ± 10
1102.5 K | 1739 ± 10 | –
1102.9 K | – | 1764 ± 10
1103.4 K | – | 1764 ± 10
1103.6 K | – | 1763 ± 10
1104.1 K | – | 1763 ± 10
1104.5 K | – | 1763 ± 10
1104.8 K | – | 1763 ± 10
1105.2 K | – | 1762 ± 10
1105.7 K | – | 1762 ± 10
1105.9 K | – | 1762 ± 10
1106.4 K | – | 1762 ± 10
1106.7 K | – | 1761 ± 10
1107.3 K | – | 1761 ± 10
1107.7 K | – | 1761 ± 10
1108 K | – | 1761 ± 10
1108.5 K | – | 1760 ± 10
1108.8 K | – | 1760 ± 10
1109.3 K | – | 1759 ± 10
1109.7 K | – | 1759 ± 10
1110.1 K | – | 1759 ± 10
1110.5 K | – | 1759 ± 10
1111 K | – | 1758 ± 10
1111.3 K | – | 1758 ± 10
1111.7 K | – | 1758 ± 10
1112.1 K | – | 1757 ± 10
1112.6 K | – | 1757 ± 10
1112.9 K | – | 1757 ± 10
1113.2 K | – | 1757 ± 10
1113.7 K | – | 1756 ± 10
1114.2 K | – | 1756 ± 10
1114.6 K | – | 1755 ± 10
1114.9 K | – | 1755 ± 10
1115.3 K | – | 1755 ± 10
1115.7 K | – | 1754 ± 10
1116.1 K | – | 1754 ± 10
1116.5 K | – | 1754 ± 10
1117 K | – | 1754 ± 10
1117.4 K | – | 1753 ± 10
1117.8 K | – | 1753 ± 10
1118.3 K | – | 1753 ± 10
1118.7 K | – | 1752 ± 10
1119.2 K | – | 1752 ± 10
1119.4 K | – | 1751 ± 10
1119.9 K | – | 1751 ± 10
1120.3 K | – | 1751 ± 10
1120.6 K | – | 1751 ± 10
1121.2 K | – | 1750 ± 10
1121.5 K | – | 1750 ± 10
1122 K | – | 1750 ± 10
1122.4 K | – | 1750 ± 10
1122.8 K | – | 1749 ± 10
1123.3 K | – | 1749 ± 10
